Experimental data from US20090163549A1, “Pharmaceutical Composition Comprising an Amide Derivative” (priority 2005, published 2009).

Legend:
human TRPV1 receptors = biological target: T1, human TRPV1 receptors (Homo sapiens, UniProt Q8NER1); experiment: Inhibition of capsaicin-stimulated Ca2+ influx (Fluo-3, FDSS-3000) in CHO-K1 cells stably expressing human TRPV1 receptors; format: cell-based; conditions: CHO-K1 cells transfected with human TRPV1; capsaicin stimulation; Fluo-3 fluorescence
T1 construct: expressed in transfected cells; host or cells: CHO-K1
Experimental: CHO-K1 cells were transfected with human TRPV1 receptors and a cell culture stably expressing the receptor was seeded on a medium of alpha-MEM containing FBS(10%), HEPES (20 mM), geneticin (1 mg/mL) and antibiotic-antimycotic mixed solution(1%) in 96-well plates, and incubated at 37° C. and 5% CO2 for 2-3 days.
The medium was then substituted with Lording Buffer (20 mM HEPES, 115 mM NaCl, 5.4 mM KCl 0.8 mM MgCl2, 1.8 mM CaCl2, 13.8 mM D-glucose, 2.5 mM probenecid, pH 7.4) containing Fluo-3 AM (5 μM) and incubated at 37° C. and 5% CO2 for 1 hour. The test compounds were diluted to different concentrations and added to the plates after the incubated culture was washed with Wash Buffer (20 mM HEPES, 115 mM NaCl, 5.4 mM KCl 0.8 mM MgCl2, 5.0 mM CaCl2, 13.8 mM D-glucose, 2.5 mM probenecid, 0.1% BSA, pH 7.4) and placed at room temperature for 15 minutes.
The plate was set up in Functional Drug Screening System(FDSS)-3000(Hamamatsu Photonics K.K.) and amounts of Ca^2+ influx before and after capsaicin-stimulation were measured through changes in the fluorescence intensity of Fluo-3.
An inhibitory activity was evaluated by measuring fluorescence intensity in the presence of various concentrations of the test compounds and calculating their % inhibition on the basis that the maximum fluorescence intensity is 100% inhibition when stimulated by Wash Buffer, and 0% inhibition when stimulated by capsaicin
Data analysis and calculation of IC50 values were performed with Excel(Microsoft Corporation) and XLfit(idbs).

T1 sequence (Q8NER1 whole entry): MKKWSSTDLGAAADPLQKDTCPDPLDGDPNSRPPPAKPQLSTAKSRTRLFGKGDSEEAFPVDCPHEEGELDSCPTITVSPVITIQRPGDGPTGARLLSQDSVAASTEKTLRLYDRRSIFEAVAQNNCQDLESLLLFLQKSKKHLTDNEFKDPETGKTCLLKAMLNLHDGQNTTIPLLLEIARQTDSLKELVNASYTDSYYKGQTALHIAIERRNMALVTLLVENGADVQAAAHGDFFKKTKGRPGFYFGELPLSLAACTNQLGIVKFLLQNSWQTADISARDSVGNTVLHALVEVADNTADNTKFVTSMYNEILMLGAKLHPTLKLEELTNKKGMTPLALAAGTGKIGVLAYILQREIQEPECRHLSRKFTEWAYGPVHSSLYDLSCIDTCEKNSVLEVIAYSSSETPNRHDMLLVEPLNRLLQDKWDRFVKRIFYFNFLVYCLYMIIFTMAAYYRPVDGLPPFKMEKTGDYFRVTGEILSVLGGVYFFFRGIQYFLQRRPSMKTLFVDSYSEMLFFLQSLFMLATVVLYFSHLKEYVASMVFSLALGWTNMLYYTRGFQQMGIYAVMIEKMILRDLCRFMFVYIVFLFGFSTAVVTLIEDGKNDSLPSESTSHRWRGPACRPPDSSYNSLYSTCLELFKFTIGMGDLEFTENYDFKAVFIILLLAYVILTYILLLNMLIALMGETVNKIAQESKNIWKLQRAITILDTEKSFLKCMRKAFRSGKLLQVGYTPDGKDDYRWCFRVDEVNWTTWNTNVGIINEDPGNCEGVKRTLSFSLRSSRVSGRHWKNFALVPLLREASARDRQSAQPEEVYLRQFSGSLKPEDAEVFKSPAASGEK

Row | SMILES | IC50 (human TRPV1 receptors) [nM] | melting point [°C]
1 | CC(C)(C)c1ccc(NC(=O)c2ccc(C3OCCCO3)cc2)cc1 [Ia-1] | 176 | 165 to 166
2 | CC(C)(C)c1ccc(NC(=O)c2ccc(C3(C)OCCCO3)cc2)cc1 [Ia-2, N-(4-tert-butylphenyl)-4-(2-methyl-1,3-dioxane-2-yl)benzamide] | 297 | 148 to 149
3 | CC(C)(C)c1ccc(NC(=O)c2ccc(C3NCCS3)cc2)cc1 (centres unmarked) [Ib-1] | 210 | 119 to 120
4 | CC(C)(C)c1ccc(NC(=O)c2ccc(C3(C)NCCS3)cc2)cc1 (centres unmarked) [Ib-2] | 190 | 152 to 153
5 | CC(C)(C)c1ccc(NC(=O)c2ccc(C3(C)NCCO3)cc2)cc1 (centres unmarked) [Ic-1] | 250 | 138 to 139
6 | CC(C)(C)c1ccc(NC(=O)c2ccc(C3(C)OCCO3)cc2)cc1 [Ie-2] | 230 | 180 to 189
7 | CC(C)(C)c1ccc(NC(=O)c2ccc(C3=NCCS3)cc2)cc1 [If-1, N-(4-tert-butylphenyl)-4-(2-thiazolinyl)benzamide] | 6 | 176 to 177
8 | CC(C)(C)c1ccc(NC(=O)c2ccc(C3NOC(=O)N3)cc2)cc1 (centres unmarked) [Ih-1, N-(4-tert-butylphenyl)-4-(5-oxo-1,2,4-oxadiazolidine-3-yl)benzamide] | – | > 300
9 | CON=C(C)c1ccc(C(=O)Nc2ccc(C(C)(C)C)cc2)cc1 [Ij-4, N-(4-tert-butylphenyl)-4-(1-methoxyiminoethyl)benzamide] | 163 | 154 to 155
